Test results from publication PMC7531004, “Discovery of gramicidin A analogues with altered activities by multidimensional screening of a one-bead-one-compound library” (Nature Communications, 2020).
Where a SMILES comes first, the peptide text is derived from it. [ ]: non-standard residue; d: D form. The star is where a group is joined. NHCH2CH2OH = OCCN*; For = O=C*

Tests used:
[1] = H+/Na+ transport assay of bead-derived peptides (one-point); assay type: biochemical; design: key: relative activity; mean of two control wells = 1.00; conditions: bead-derived peptide solution, EYPC/EYPG LUVs;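 further: relative to parent gramicidin A activity set to 1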
Procedure, shortened: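 Miniaturized 96-well format. LUVs with entrapped pyranine (1.0 mM) were exposed to peptide for 30 min at RT. Intensities were expressed relative to full lysis by Triton X-100 and no treatment, with control-well mean = 1.00.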

[2] = tested on: P388 mouse leukemia cells; conditions: 92 h
Procedure, shortened: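 P388 cells at 1 × 10^4 cells/mL (final) were exposed to library peptides (stocks diluted 250-fold in RPMI1640/10% FBS) for 92 h at 37 °C, 5% CO2. Viable cells were counted by WST-1/1-methoxy PMS (4 h), absorbance 415 nm, and expressed as cell viability (%).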

[3] = tested on: Streptococcus pyogenes SSI-9; assay: Antibacterial activity assay of bead-derived peptides (three concentrations); assay type: cell-based; design: key: +++: inhibition by the 640-fold diluted peptide solution; ++: inhibition by the 160-fold diluted solution; +: inhibition by the 40-fold diluted solution; -: no inhibition; conditions: S. pyogenes, bead-derived peptide solution, three concentrations
Procedure, shortened: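 Library peptide stock applied undiluted, 4-fold and 16-fold diluted in DMSO to S. pyogenes SSI-9 (2 × 10^5 CFU) in cation-adjusted Mueller Hinton broth with 5% laked horse blood. After 18 h at 37 °C, growth judged by visible cell precipitation.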

Row | Structure (SMILES) | H+/Na+ transport activity normalized against the value of 1 (1.00) [1] | cell viability/% [2] [%] | antibacterial activity [3]
1 | CC(C)C[C@@H](NC(=O)[C@H](C)NC(=O)CNC(=O)[C@@H](NC=O)C(C)C)C(=O)N[C@@H](C)C(=O)N[C@@H](C(=O)N[C@H](C(=O)N[C@@H](C(=O)N[C@@H](Cc1c[nH]c2ccccc12)C(=O)N[C@H](CC(C)C)C(=O)N[C@@H](Cc1c[nH]c2ccccc12)C(=O)N[C@H](CC(C)C)C(=O)N[C@@H](Cc1c[nH]c2ccccc12)C(=O)N[C@H](CC(C)C)C(=O)N[C@@H](Cc1c[nH]c2ccccc12)C(=O)NCCO)C(C)C)C(C)C)C(C)C [compound 4495] (For-VGA[dL]A[dV]V[dV]W[dL]W[dL]W[dL]W-NHCH2CH2OH) | 1.26 | 3.5 | ++
2 | CC(C)C[C@@H](NC(=O)[C@H](C)NC(=O)CNC(=O)[C@@H](NC=O)C(C)C)C(=O)N[C@@H](C)C(=O)N[C@H](CC(C)C)C(=O)N[C@H](C(=O)N[C@H](CC(C)C)C(=O)N[C@@H](Cc1c[nH]c2ccccc12)C(=O)N[C@@H](C(=O)N[C@@H](Cc1c[nH]c2ccccc12)C(=O)N[C@@H](C(=O)N[C@@H](Cc1c[nH]c2ccccc12)C(=O)N[C@@H](C(=O)N[C@@H](Cc1c[nH]c2ccccc12)C(=O)NCCO)C(C)C)C(C)C)[C@H](C)O)C(C)C [compound 4532] (For-VGA[dL]A[dL]V[dL]W[dT]W[dV]W[dV]W-NHCH2CH2OH) | 1.11 | 100.0 | -
3 | CC(C)C[C@@H](NC(=O)[C@H](C)NC(=O)[C@H](NC(=O)[C@H](C)NC(=O)CNC(=O)[C@@H](NC=O)C(C)C)[C@H](C)O)C(=O)N[C@H](C(=O)N[C@H](CC(C)C)C(=O)N[C@@H](Cc1c[nH]c2ccccc12)C(=O)N[C@@H](C(=O)N[C@@H](Cc1c[nH]c2ccccc12)C(=O)N[C@H](CC(C)C)C(=O)N[C@@H](Cc1c[nH]c2ccccc12)C(=O)N[C@@H](C(=O)N[C@@H](Cc1c[nH]c2ccccc12)C(=O)NCCO)C(C)C)[C@H](C)O)C(C)C [compound 4545] (For-VGA[dT]A[dL]V[dL]W[dT]W[dL]W[dV]W-NHCH2CH2OH) | 1.18 | 100.0 | -
4 | CC(C)C[C@@H](NC(=O)[C@H](C)NC(=O)[C@H](NC(=O)[C@H](C)NC(=O)CNC(=O)[C@@H](NC=O)C(C)C)[C@H](C)O)C(=O)N[C@H](C(=O)N[C@@H](C(=O)N[C@@H](Cc1c[nH]c2ccccc12)C(=O)N[C@@H](C(=O)N[C@@H](Cc1c[nH]c2ccccc12)C(=O)N[C@H](CC(C)C)C(=O)N[C@@H](Cc1c[nH]c2ccccc12)C(=O)N[C@H](CC(C)C)C(=O)N[C@@H](Cc1c[nH]c2ccccc12)C(=O)NCCO)C(C)C)C(C)C)C(C)C [compound 4652] (For-VGA[dT]A[dL]V[dV]W[dV]W[dL]W[dL]W-NHCH2CH2OH) | 1.03 | 100.0 | -
5 | CC(C)C[C@@H](NC(=O)[C@H](C)NC(=O)CNC(=O)[C@@H](NC=O)C(C)C)C(=O)N[C@@H](C)C(=O)N[C@H](CC(C)C)C(=O)N[C@H](C(=O)N[C@@H](C(=O)N[C@@H](Cc1c[nH]c2ccccc12)C(=O)N[C@H](CC(C)C)C(=O)N[C@@H](Cc1c[nH]c2ccccc12)C(=O)N[C@H](CC(C)C)C(=O)N[C@@H](Cc1c[nH]c2ccccc12)C(=O)N[C@@H](C(=O)N[C@@H](Cc1c[nH]c2ccccc12)C(=O)NCCO)C(C)C)[C@H](C)O)C(C)C [compound 4690] (For-VGA[dL]A[dL]V[dT]W[dL]W[dL]W[dV]W-NHCH2CH2OH) | 1.01 | 100.0 | +
6 | CC(C)C[C@@H](NC(=O)[C@H](C)NC(=O)[C@H](NC(=O)[C@H](C)NC(=O)CNC(=O)[C@@H](NC=O)C(C)C)C(C)C)C(=O)N[C@H](C(=O)N[C@@H](C(=O)N[C@@H](Cc1c[nH]c2ccccc12)C(=O)N[C@@H](C(=O)N[C@@H](Cc1c[nH]c2ccccc12)C(=O)N[C@H](CC(C)C)C(=O)N[C@@H](Cc1c[nH]c2ccccc12)C(=O)N[C@@H](C(=O)N[C@@H](Cc1c[nH]c2ccccc12)C(=O)NCCO)C(C)C)C(C)C)[C@H](C)O)C(C)C [compound 4710] (For-VGA[dV]A[dL]V[dT]W[dV]W[dL]W[dV]W-NHCH2CH2OH) | 1.06 | 100.0 | -
7 | CC(C)C[C@@H](NC(=O)[C@H](C)NC(=O)CNC(=O)[C@@H](NC=O)C(C)C)C(=O)N[C@@H](C)C(=O)N[C@@H](C(=O)N[C@H](C(=O)N[C@@H](C(=O)N[C@@H](Cc1c[nH]c2ccccc12)C(=O)N[C@@H](C(=O)N[C@@H](Cc1c[nH]c2ccccc12)C(=O)N[C@@H](C(=O)N[C@@H](Cc1c[nH]c2ccccc12)C(=O)N[C@H](CC(C)C)C(=O)N[C@@H](Cc1c[nH]c2ccccc12)C(=O)NCCO)C(C)C)C(C)C)[C@H](C)O)C(C)C)C(C)C [compound 4778] (For-VGA[dL]A[dV]V[dT]W[dV]W[dV]W[dL]W-NHCH2CH2OH) | 1.09 | 100.0 | -
8 | CNC(=O)C[C@@H](NC(=O)[C@H](Cc1c[nH]c2ccccc12)NC(=O)[C@H](NC(=O)[C@H](Cc1c[nH]c2ccccc12)NC(=O)[C@H](NC(=O)[C@H](Cc1c[nH]c2ccccc12)NC(=O)[C@@H](CC(C)C)NC(=O)[C@@H](NC(=O)[C@H](NC(=O)[C@H](C)NC(=O)[C@@H](CC(C)C)NC(=O)[C@H](C)NC(=O)CNC(=O)[C@@H](NC=O)C(C)C)C(C)C)C(C)C)C(C)C)C(C)C)C(=O)N[C@@H](Cc1c[nH]c2ccccc12)C(=O)NCCO [compound 4808] (For-VGA[dL]A[dV]V[dL]W[dV]W[dV]W[dD](NHMe)W-NHCH2CH2OH) | 1.02 | 100.0 | -
9 | CC(C)C[C@@H](NC(=O)[C@H](Cc1c[nH]c2ccccc12)NC(=O)[C@H](NC(=O)[C@@H](NC(=O)[C@H](NC(=O)[C@H](C)NC(=O)[C@H](NC(=O)[C@H](C)NC(=O)CNC(=O)[C@@H](NC=O)C(C)C)C(C)C)C(C)C)C(C)C)C(C)C)C(=O)N[C@@H](Cc1c[nH]c2ccccc12)C(=O)N[C@@H](C(=O)N[C@@H](Cc1c[nH]c2ccccc12)C(=O)N[C@@H](C(=O)N[C@@H](Cc1c[nH]c2ccccc12)C(=O)NCCO)C(C)C)C(C)C [compound 4830] (For-VGA[dV]A[dV]V[dV]W[dL]W[dV]W[dV]W-NHCH2CH2OH) | 1.18 | 89.5 | ++
10 | CC(C)C[C@@H](NC(=O)[C@H](C)NC(=O)CNC(=O)[C@@H](NC=O)C(C)C)C(=O)N[C@@H](C)C(=O)N[C@@H](C(=O)N[C@H](C(=O)N[C@@H](C(=O)N[C@@H](Cc1c[nH]c2ccccc12)C(=O)N[C@@H](C(=O)N[C@@H](Cc1c[nH]c2ccccc12)C(=O)N[C@H](CC(C)C)C(=O)N[C@@H](Cc1c[nH]c2ccccc12)C(=O)N[C@@H](C(=O)N[C@@H](Cc1c[nH]c2ccccc12)C(=O)NCCO)C(C)C)C(C)C)C(C)C)C(C)C)C(C)C [compound 4884] (For-VGA[dL]A[dV]V[dV]W[dV]W[dL]W[dV]W-NHCH2CH2OH) | 1.27 | 49.1 | ++
11 | CC(C)C[C@@H](NC(=O)[C@H](C)NC(=O)CNC(=O)[C@@H](NC=O)C(C)C)C(=O)N[C@@H](C)C(=O)N[C@@H](C(=O)N[C@H](C(=O)N[C@H](CC(C)C)C(=O)N[C@@H](Cc1c[nH]c2ccccc12)C(=O)N[C@@H](C(=O)N[C@@H](Cc1c[nH]c2ccccc12)C(=O)N[C@H](CC(C)C)C(=O)N[C@@H](Cc1c[nH]c2ccccc12)C(=O)N[C@@H](C(=O)N[C@@H](Cc1c[nH]c2ccccc12)C(=O)NCCO)C(C)C)C(C)C)C(C)C)C(C)C [compound 4895] (For-VGA[dL]A[dV]V[dL]W[dV]W[dL]W[dV]W-NHCH2CH2OH) | 1.16 | 48.2 | +
12 | CC(C)C[C@@H](NC(=O)[C@H](C)NC(=O)CNC(=O)[C@@H](NC=O)C(C)C)C(=O)N[C@@H](C)C(=O)N[C@@H](C(=O)N[C@H](C(=O)N[C@H](CC(C)C)C(=O)N[C@@H](Cc1c[nH]c2ccccc12)C(=O)N[C@@H](C(=O)N[C@@H](Cc1c[nH]c2ccccc12)C(=O)N[C@H](CC(C)C)C(=O)N[C@@H](Cc1c[nH]c2ccccc12)C(=O)N[C@@H](C(=O)N[C@@H](Cc1c[nH]c2ccccc12)C(=O)NCCO)[C@H](C)O)C(C)C)C(C)C)C(C)C [compound 5058] (For-VGA[dL]A[dV]V[dL]W[dV]W[dL]W[dT]W-NHCH2CH2OH) | 1.02 | 100.0 | -
13 | CNC(=O)C[C@@H](NC(=O)[C@H](Cc1c[nH]c2ccccc12)NC(=O)[C@H](NC(=O)[C@@H](NC(=O)[C@@H](CC(C)C)NC(=O)[C@H](C)NC(=O)[C@@H](CC(C)C)NC(=O)[C@H](C)NC(=O)CNC(=O)[C@@H](NC=O)C(C)C)C(C)C)C(C)C)C(=O)N[C@@H](Cc1c[nH]c2ccccc12)C(=O)N[C@H](CC(C)C)C(=O)N[C@@H](Cc1c[nH]c2ccccc12)C(=O)N[C@@H](C(=O)N[C@@H](Cc1c[nH]c2ccccc12)C(=O)NCCO)C(C)C [compound 5091] (For-VGA[dL]A[dL]V[dV]W[dD](NHMe)W[dL]W[dV]W-NHCH2CH2OH) | 1.05 | 100.0 | +
